{"source": "ChEMBL document CHEMBL1201862", "about": "“PubChem BioAssay data set” (2004)", "test_in_all_cases": "NCI tumour cell line growth inhibition, 48 h", "key": {"786-0": {"system": "786-0"}, "A498": {"system": "A498"}, "A549": {"system": "A549"}, "ACHN": {"system": "ACHN"}, "BT-549": {"system": "BT-549"}, "CAKI-1": {"system": "CAKI-1"}, "CCRF-CEM": {"system": "CCRF-CEM"}, "COLO 205": {"system": "COLO 205"}, "DU-145": {"system": "DU-145"}, "EKVX": {"system": "EKVX"}, "HCC 2998": {"system": "HCC 2998"}, "HCT-116": {"system": "HCT-116"}, "HCT-15": {"system": "HCT-15"}, "HOP-62": {"system": "HOP-62"}, "HOP-92": {"system": "HOP-92"}, "HT-29": {"system": "HT-29"}, "Hs-578T": {"system": "Hs-578T"}, "IGROV-1": {"system": "IGROV-1"}, "K562": {"system": "K562"}, "KM12": {"system": "KM12"}, "LOX IMVI": {"system": "LOX IMVI"}, "M14": {"system": "M14"}, "MCF7": {"system": "MCF7"}, "MDA-MB-231": {"system": "MDA-MB-231"}, "MDA-MB-435": {"system": "MDA-MB-435"}, "MDA-N": {"system": "MDA-N"}, "MOLT-4": {"system": "MOLT-4"}, "Malme-3M": {"system": "Malme-3M"}, "NCI-H226": {"system": "NCI-H226"}, "NCI-H23": {"system": "NCI-H23"}, "NCI-H460": {"system": "NCI-H460"}, "NCI-H522": {"system": "NCI-H522"}, "NCI/ADR-RES": {"system": "NCI/ADR-RES"}, "OVCAR-3": {"system": "OVCAR-3"}, "OVCAR-4": {"system": "OVCAR-4"}, "OVCAR-5": {"system": "OVCAR-5"}, "OVCAR-8": {"system": "OVCAR-8"}, "PC-3": {"system": "PC-3"}, "RPMI-8226": {"system": "RPMI-8226"}, "RXF 393": {"system": "RXF 393"}, "SF-268": {"system": "SF-268"}, "SF-295": {"system": "SF-295"}, "SF-539": {"system": "SF-539"}, "SK-MEL-28": {"system": "SK-MEL-28"}, "SK-MEL-2": {"system": "SK-MEL-2"}, "SK-MEL-5": {"system": "SK-MEL-5"}, "SK-OV-3": {"system": "SK-OV-3"}, "SN12C": {"system": "SN12C"}, "SNB-19": {"system": "SNB-19"}, "SNB-75": {"system": "SNB-75"}, "SR": {"system": "SR"}, "SW-620": {"system": "SW-620"}, "T47D": {"system": "T47D"}, "TK-10": {"system": "TK-10"}, "U-251": {"system": "U-251"}, "UACC-257": {"system": "UACC-257"}, "UACC-62": {"system": "UACC-62"}, "UO-31": {"system": "UO-31"}}, "note": "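Growth conditions: 96-well plates. Treatment: test compound, 48 hours, 5 concentrations. Analysis: linear interpolation between bracketing concentrations; unreached endpoints set to highest concentration. At the GI50, growth is halved.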 Active and inactive are the calls of the source. No stated cut-off is given here; in the data, active = GI50 up to about 1.1 µM and inactive = higher.", "data": [{"smiles": "CC(=O)OC1CCC2(C)C(=CCC3C2CCC2(C)C(C(C)C(=O)O)CCC32)C1", "note": "(stereo not drawn)", "values": [{"measurement": "GI50", "setting": "786-0", "value": "> 100 µM (inactive)"}, {"measurement": "GI50", "setting": "A498", "value": "59.7 µM (inactive)"}, {"measurement": "GI50", "setting": "A549", "value": "54.8 µM (inactive)"}, {"measurement": "GI50", "setting": "ACHN", "value": "59.7 µM (inactive)"}, {"measurement": "GI50", "setting": "BT-549", "value": "> 100 µM (inactive)"}, {"measurement": "GI50", "setting": "CAKI-1", "value": "> 100 µM (inactive)"}, {"measurement": "GI50", "setting": "CCRF-CEM", "value": "> 100 µM (inactive)"}, {"measurement": "GI50", "setting": "COLO 205", "value": "39.9 µM (inactive)"}, {"measurement": "GI50", "setting": "DU-145", "value": "> 100 µM (inactive)"}, {"measurement": "GI50", "setting": "EKVX", "value": "56.9 µM (inactive)"}, {"measurement": "GI50", "setting": "HCC 2998", "value": "57 µM (inactive)"}, {"measurement": "GI50", "setting": "HCT-116", "value": "75.9 µM (inactive)"}, {"measurement": "GI50", "setting": "HCT-15", "value": 78.5, "unit": "µM"}, {"measurement": "GI50", "setting": "HOP-62", "value": "> 100 µM (inactive)"}, {"measurement": "GI50", "setting": "HOP-92", "value": "> 100 µM (inactive)"}, {"measurement": "GI50", "setting": "HT-29", "value": "48.6 µM (inactive)"}, {"measurement": "GI50", "setting": "Hs-578T", "value": "> 100 µM (inactive)"}, {"measurement": "GI50", "setting": "IGROV-1", "value": "> 100 µM (inactive)"}, {"measurement": "GI50", "setting": "K562", "value": "> 100 µM (inactive)"}, {"measurement": "GI50", "setting": "KM12", "value": "84.7 µM (inactive)"}, {"measurement": "GI50", "setting": "LOX IMVI", "value": "> 100 µM (inactive)"}, {"measurement": "GI50", "setting": "M14", "value": "> 100 µM (inactive)"}, {"measurement": "GI50", "setting": "MCF7", "value": "51.1 µM (inactive)"}, {"measurement": "GI50", "setting": "MDA-MB-231", "value": "> 100 µM (inactive)"}, {"measurement": "GI50", "setting": "MDA-MB-435", "value": "> 100 µM (inactive)"}, {"measurement": "GI50", "setting": "MDA-N", "value": "> 100 µM (inactive)"}, {"measurement": "GI50", "setting": "MOLT-4", "value": "> 100 µM (inactive)"}, {"measurement": "GI50", "setting": "Malme-3M", "value": "> 100 µM (inactive)"}, {"measurement": "GI50", "setting": "NCI-H226", "value": "> 100 µM (inactive)"}, {"measurement": "GI50", "setting": "NCI-H23", "value": "> 100 µM (inactive)"}, {"measurement": "GI50", "setting": "NCI-H460", "value": "63 µM (inactive)"}, {"measurement": "GI50", "setting": "NCI-H522", "value": "58.6 µM (inactive)"}, {"measurement": "GI50", "setting": "NCI/ADR-RES", "value": "> 100 µM (inactive)"}, {"measurement": "GI50", "setting": "OVCAR-3", "value": "> 100 µM (inactive)"}, {"measurement": "GI50", "setting": "OVCAR-4", "value": "> 100 µM (inactive)"}, {"measurement": "GI50", "setting": "OVCAR-5", "value": "> 100 µM (inactive)"}, {"measurement": "GI50", "setting": "OVCAR-8", "value": "> 100 µM (inactive)"}, {"measurement": "GI50", "setting": "PC-3", "value": "> 100 µM (inactive)"}, {"measurement": "GI50", "setting": "RPMI-8226", "value": "> 100 µM (inactive)"}, {"measurement": "GI50", "setting": "RXF 393", "value": "69.5 µM (inactive)"}, {"measurement": "GI50", "setting": "SF-268", "value": "> 100 µM (inactive)"}, {"measurement": "GI50", "setting": "SF-295", "value": "> 100 µM (inactive)"}, {"measurement": "GI50", "setting": "SF-539", "value": "> 100 µM (inactive)"}, {"measurement": "GI50", "setting": "SK-MEL-28", "value": "> 100 µM (inactive)"}, {"measurement": "GI50", "setting": "SK-MEL-2", "value": "> 100 µM (inactive)"}, {"measurement": "GI50", "setting": "SK-MEL-5", "value": "70.6 µM (inactive)"}, {"measurement": "GI50", "setting": "SK-OV-3", "value": "> 100 µM (inactive)"}, {"measurement": "GI50", "setting": "SN12C", "value": "> 100 µM (inactive)"}, {"measurement": "GI50", "setting": "SNB-19", "value": "> 100 µM (inactive)"}, {"measurement": "GI50", "setting": "SNB-75", "value": "> 100 µM (inactive)"}, {"measurement": "GI50", "setting": "SR", "value": "> 100 µM (inactive)"}, {"measurement": "GI50", "setting": "SW-620", "value": "> 100 µM (inactive)"}, {"measurement": "GI50", "setting": "T47D", "value": "> 100 µM (inactive)"}, {"measurement": "GI50", "setting": "TK-10", "value": "> 100 µM (inactive)"}, {"measurement": "GI50", "setting": "U-251", "value": "88.9 µM (inactive)"}, {"measurement": "GI50", "setting": "UACC-257", "value": "> 100 µM (inactive)"}, {"measurement": "GI50", "setting": "UACC-62", "value": "> 100 µM (inactive)"}, {"measurement": "GI50", "setting": "UO-31", "value": "92 µM (inactive)"}]}]}
